What was measured:
[1] = molecular target: T1, HCV polymerase (NS5B570n-Con1) (Hepatitis C virus genotype 1b, UniProt Q9WMX2); experiment: HCV NS5B RNA polymerase activity (HCV Polymerase Assay); type: biochemical, HCV Con1 strain
T1 construct: contains a 21 amino acid deletion at the C-terminus relative to the full-length HCV polymerase; made in house; host or cells: E. coli strain BL21(DE) pLysS, plasmid pET17b
Protocol: The enzymatic activity of HCV polymerase (NS5B570n-Con1) was measured as the incorporation of radiolabeled nucleotide monophosphates into acid insoluble RNA products. Unincorporated radiolabeled substrate was removed by filtration and scintillant was added to the washed and dried filter plate containing radiolabeled RNA product. The amount of RNA product generated by NS5B570-Con1 at the end of the reaction was directly proportional to the amount of light emitted by the scintillant.
The N-terminal 6-histidine tagged HCV polymerase, derived from HCV Con1 strain, genotype 1b (NS5B570n-Con1) contains a 21 amino acid deletion at the C-terminus relative to the full-length HCV polymerase and was purified from E. coli strain BL21(DE) pLysS. The construct, containing the coding sequence of HCV NS5B Con1 (GenBank accession number AJ242654) was inserted into the plasmid construct pET17b, downstream of a T7 promoter expression cassette and transformed into E. coli. A single colony was grown overnight as a starter culture and later used inoculate 10 L of LB media supplemented with 100 μg/mL ampicillin at 37° C. Protein expression was induced by the addition of 0.25 mM isopropyl-β-D-thiogalactopyranoside (IPTG) when optical density at […] of the culture was between 0.6 and 0.8 and cells were harvested after 16 to 18 h at 30° C. NS5B570n-Con1 was purified to homogeneity using a three-step protocol including subsequent column chromatography on Ni-NTA, SP-Sepharose HP and Superdex 75 resins.
Each 50 μL enzymatic reaction contained 20 nM RNA template derived from the complementary sequence of the Internal Ribosome Entry Site (cIRES), 20 nM NS5B570n-Con1 enzyme, 0.5 μCi of tritiated UTP (Perkin Elmer catalog no. TRK-412; specific activity: 30 to 60 Ci/mmol; stock solution concentration from 7.5×10^−5 M to 20.6×10^−6 M), 1 μM each ATP, CTP, and GTP, 40 mM Tris-HCl pH 8.0, 40 mM NaCl, 4 mM DTT (dithiothreitol), 4 mM MgCl2, and 5 μL of compound serial diluted in DMSO. Reaction mixtures were assembled in 96-well filter plates (cat #MADVNOB, Millipore Co.) and incubated for 2 h at 30° C. Reactions were stopped by addition of 10% final (v/v) trichloroacetic acid and incubated for 40 min at 4° C. Reactions were filtered, washed with 8 reaction volumes of 10% (v/v) trichloroacetic acetic acid, 4 reaction volumes of 70% (v/v) ethanol, air dried, and 25 μL of scintillant (Microscint 20, Perkin-Elmer) was added to each reaction well.
The amount of light emitted from the scintillant was converted to counts per minute (CPM) on a Topcount® plate reader (Perkin-Elmer, Energy Range: Low, Efficiency Mode Normal, Count Time: 1 min, Background Subtract: none, Cross talk reduction: Off).
Data was analyzed in Excel® (Microsoft®) and ActivityBase® (Idbs®). The reaction in the absence of enzyme was used to determine the background signal, which was subtracted from the enzymatic reactions. Positive control reactions were performed in the absence of compound, from which the background corrected activity was set as 100% polymerase activity. All data was expressed as a percentage of the positive control.
The compound concentration at which the enzyme-catalyzed rate of RNA synthesis was reduced by 50% (IC50) was calculated by fitting equation (i) to the data where“Y”
[formula] corresponds to the relative enzyme activity (in %), “% Min” is the residual relative activity at saturating compound concentration, “% Max” is the relative maximum enzymatic activity, “X” corresponds to the compound concentration, and “S” is the Hill coefficient (or slope).

[2] = tested on: HCV replicon cells (2209-23), genotype 1b replicon in Huh7 cells; experiment: HCV replicon assay (Renilla luciferase reporter); type: cell-based, HCV genotype 1b; human hepatoma Huh7 cells; conditions: Hepatitis C virus, Huh-7, 72 h, 2209-23 cells, three days incubation
in vitro = conditions: human

With `COc1c(/C=C/c2ccc(NS(C)(=O)=O)cc2)cc(-n2ccncc2=O)cc1C(C)(C)C` [Compound I-13] the IC50 [1] was 0.31 nM, the IC50 [2] was 18.6 nM and the melting point was 214 to 216 °C. It also gave a CC50 (in vitro) of 21400 nM.
